The numbers were not newly measured in patent publication US5389382A, “Hydrosols of pharmacologically active agents and their pharmaceutical compositions comprising them” (Sandoz Ltd., priority 1986, dated 1995), which cites them from elsewhere.

For this series the following is noted: at room temperature.

Take `Cc1ccc2c(-c3ccccc3)nc(=O)n(C(C)C)c2c1` [Proquazone, 1-isopropyl-7-methyl-4-phenyl-2(1H)-quinazolone]: the water solubility result is recorded as “below 0.1 g/100 ml”.
